Laboratory results reported in EP1354870A1, “DIHYD[…]” (CONSEJO SUPERIOR DE INVESTIGACIONES CIENTIFICAS, priority 2000, dated 2002).

Molecular target: T1, dihydroceramide desaturase (Rattus norvegicus, UniProt Q5XIF5)
T1 construct: from tissue; host or cells: rat liver microsomes
T1 sequence (Q5XIF5 1-323): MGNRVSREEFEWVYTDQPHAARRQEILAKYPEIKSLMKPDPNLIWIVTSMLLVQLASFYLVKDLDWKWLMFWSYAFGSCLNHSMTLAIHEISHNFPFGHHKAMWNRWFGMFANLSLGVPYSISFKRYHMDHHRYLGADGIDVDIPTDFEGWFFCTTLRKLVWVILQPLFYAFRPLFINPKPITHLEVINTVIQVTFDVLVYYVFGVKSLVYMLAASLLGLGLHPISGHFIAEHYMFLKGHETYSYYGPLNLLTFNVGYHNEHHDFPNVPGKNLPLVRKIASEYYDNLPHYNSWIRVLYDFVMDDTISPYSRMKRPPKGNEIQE
Test: Inhibitory activity on dihydroceramide desaturase in rat liver microsomes (GC-MS quantification of the desaturated product)
Assay type: biochemical
Details: substrate N-octanoyldihydrosphingosine 10 nmoles, NADH, 37°C for 30 minutes, without preincubation, effect dose-dependent
Experimental: The inhibitory activity of the type I compounds that is claimed in this patent was tested on rat liver microsomes, prepared as described in [Michel, C. van Echten-Deckert, G.; Rother, J.; Sandhoff, K.; Wang, E.; Merrill, A. H. J. Biol. Chem. 1997, 272, 22432-22437]. The dihydroceramide desaturase activity was determined according to the procedure described in Michel, C. van Echten-Deckert, G.; Rother, J.; Sandhoff, K.; Wang, E.; Merrill, A. H. J. Biol. Chem. 1997, 272, 22432-22437, with the following modifications: compound la in increasing doses of 0, 0.6, 1.25, 2.5, 5 and 10 nmoles, was solubilized in BSA-ethanol 9:1 (100µl) and to the resulting solution 10 nmoles of substrate dissolved in 10µl of ethanol were added. To this solution was added a total of 0.3 mg of the microsomal suspension containing the desaturase, and 30 µl of a […] solution of NADH in 0.1M phosphate buffer, pH 7.5. The suspension was incubated at 37°C for 30 minutes and the reactions were stopped by adding 0.5 mL of chloroform containing 1 nmol of N-hexanoylsphingosine as an internal standard for quantification. Repeated lipid extractions with chloroform were carried out (2 x 250 µl) and the combined organic extracts were evaporated to dryness under a stream of Nitrogen. The resulting residue was treated with 50 µl of bis-trimethylsilyltrifluoroacetamide at 25°C for 60 minutes. […]

With CCCCCCCCCCCCCC1=C(C(O)C(CO)NC(=O)CCCCCCC)C1 (single isomer, unassigned) [la] the IC50 was 52 nM.
